# “And” between values parts separate entries of the source, which are not always exact repeats. Equal values may be shown once. Read-outs that look alike come from different tables or passages of the source.
# Key:
# [1] = tested on: primary human lymphoblasts; assay: Cholesterol Biosynthesis Assay (sterol profiles of cultured cells); format: cell-based; settings: for Percent Sterols: 2. C28 Sterols / Percent Sterols: 3. C29 Sterols / Percent Sterols: Cholesterol / Percent Sterols: d. Zymosterol / Percent Sterols: e. Cholesta-8(14)-en-3ß-ol / Percent Sterols: f. 7 Dehydrocholesterol / Total Sterols (µg/mg protein) / Percent Sterols: c. Cholesta-7,24-dien-3ß-ol: five days
# [2] = tested on: rat hepatoma cells; assay: Cholesterol Esterification Assay (esterification of plasma membrane cholesterol); format: cell-based
# Description: Table 1. […] Table 1. Effects of synthetic and plant-derived compounds on cholesterol homeostasis. […]
# [3] = tested on: chick embryos
# Description: • 1. M. Hammerschmidt, A. Brook, A. P. McMahon, Trends Genet, 13, 14-21 (1997). • 2. C. Chiang, et al., Nature, 383,407-413 (1996). • 3. Y. Tanabe, T. M. Jessell, Science 274, 1115-1123 (1996). • 4. T. P. Yamaguchi, Curr. Opin. Genet. Dev. 7, 513-518 (1997). • 5. N. Shubin, C. Tabin, S. Carroll, Nature 388, 639-648 (1997). • 6. A. E. Oro, et al., Science 276, 817-821 (1997). • 7. M. M. Cohen, K. K. Sulik, J. Craniofac. Genet. Deve. Biol. 12, 196-244 (1992). • 8. E. Belloni, et al., Nature Genet. 14, 353-356 (1996). • 9. E. Roessler, et al., Nature Genet. 14, 357-360 (1996). • 10. J. A. Porter, et al., Nature 374, 363-366 (1995). • 11. J. A. Porter, K. E. Young, P. A. Beacy, Science 274, 255-259 (1996b). • 12. J. J. Lee, et al., Science 266, 1528-1537 (1994). • 13. J. A. Porter, et al., Cell 86, 21-34 (1996a). • 14. C. Roux, Arch. Franc. Pediatr. 21, 451-464 (1964). • 15. C. Roux, C. R. Soc. Biol. 160, 1353-1357 (1966). • 16. D. B. Dehart, L. Lanoue, G. S. Tinit, K. K. Sulik, Am J. Med. Genet. 68, 328-337 (1997). • 17. M. Kraml, J. F. Bagli, D. Dvornik, Biochem. and Biophysical Res. Com. 15, 455-457 (1964). • 18. J. Avigan, D. Steinberg, H. E. Vroman, M. J. Thompson, E. Mosettig, J. Biol. Chem 235, 3123-3126 (1960). • 19. R. B. Clayton, A. N. Nelson, I. D. Frantz Jr., J. Lipid Res. 4, 166-178 (1963). • 20. J. Aufenanger, J. Pill, K. Stegmeier, F. H. Schmidt, Horm. Metabol. Res. 17, 612-613 (1986). • 21. […] G. Popjak, A. Meenean, E. J. Parish, W. D. Nes, J. Biol. Chem 264,6230-6238 (1989). • 23. H. Yoshikawa, Brain Deve. 13, 115-120 (1991). • 24. R. I. Kelley, et al., Am. J. Of Med. Gen. 66, 478-484 (1996). • 25. G. S. Tint, et al., New England Journal of Medicine 330, 107-113 (1994). • 26. T.E. Willnow, et al., Proc. Natl. Acad. Sci USA 93, 8460-8464 (1996). • 27. S. Stefansson, D. A. Chappell, K. M. Argraves, D. K. Strickland, W. S. Argraves, J. Biol. Chem. 270, 19417-19421 (1995). • 28. W. Binns, L. F. James, J. L. Shupe, G. Everett, Am. J. Vet. Res. 24, 1164-1174 (1963). • 29. R. F. Keeler, W. Binns, Teratology 1, 5-10 (1968). • 30. P. A. Beachy, et al., CSH Symp. Quant. Biol. 62, in press (1997). • 31. […]
# [4] = tested on: endogenous Shh signaling; assay: Midline neural plate/notochord explant assay of endogenous Shh signaling; format: cell-based, chick
# [5] = molecular target: T1, Shh (Mus musculus, UniProt Q62226); assay: Shh autoprocessing in stably transfected HK293 cells (immunoblot); format: cell-based; settings: added during the 24-hour induction period; doses up to 5-fold higher than those required to completely inhibit Shh signaling
# T1 construct: expressed in transfected cells; host or cells: HK293 cells, Ecdysone-Inducible Mammalian Expression System (Invitrogen)
# T1 sequence (Q62226 25-437): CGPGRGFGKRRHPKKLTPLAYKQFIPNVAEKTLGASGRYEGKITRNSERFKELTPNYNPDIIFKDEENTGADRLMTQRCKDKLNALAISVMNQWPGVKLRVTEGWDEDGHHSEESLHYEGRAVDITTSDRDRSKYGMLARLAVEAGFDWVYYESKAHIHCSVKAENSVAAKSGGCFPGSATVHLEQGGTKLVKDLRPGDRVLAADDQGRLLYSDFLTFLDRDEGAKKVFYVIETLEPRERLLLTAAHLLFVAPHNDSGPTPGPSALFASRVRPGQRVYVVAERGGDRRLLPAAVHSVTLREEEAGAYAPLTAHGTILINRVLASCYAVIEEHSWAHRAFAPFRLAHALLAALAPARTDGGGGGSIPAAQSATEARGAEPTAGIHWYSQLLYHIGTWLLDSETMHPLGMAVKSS
# Description: To examine potential effects of these compounds on Shh processing we utilized HK293 cells cultured in lipid-depleted serum and carrying a stable integrated construct for expression of Shh under ecdysone-inducible control (47). Shh protein expression in these cells can be induced by addition of muristerone A, an ecdysone analog.
# • 1. M. Hammerschmidt, A. Brook, A. P. McMahon, Trends Genet, 13, 14-21 (1997). • 2. C. Chiang, et al., Nature, 383,407-413 (1996). • 3. Y. Tanabe, T. M. Jessell, Science 274, 1115-1123 (1996). • 4. T. P. Yamaguchi, Curr. Opin. Genet. Dev. 7, 513-518 (1997). • 5. N. Shubin, C. Tabin, S. Carroll, Nature 388, 639-648 (1997). • 6. A. E. Oro, et al., Science 276, 817-821 (1997). • 7. M. M. Cohen, K. K. Sulik, J. Craniofac. Genet. Deve. Biol. 12, 196-244 (1992). • 8. E. Belloni, et al., Nature Genet. 14, 353-356 (1996). • 9. E. Roessler, et al., Nature Genet. 14, 357-360 (1996). • 10. J. A. Porter, et al., Nature 374, 363-366 (1995). • 11. J. A. Porter, K. E. Young, P. A. Beacy, Science 274, 255-259 (1996b). • 12. J. J. Lee, et al., Science 266, 1528-1537 (1994). • 13. J. A. Porter, et al., Cell 86, 21-34 (1996a). • 14. C. Roux, Arch. Franc. Pediatr. 21, 451-464 (1964). • 15. C. Roux, C. R. Soc. Biol. 160, 1353-1357 (1966). • 16. D. B. Dehart, L. Lanoue, G. S. Tinit, K. K. Sulik, Am J. Med. Genet. 68, 328-337 (1997). • 17. M. Kraml, J. F. Bagli, D. Dvornik, Biochem. and Biophysical Res. Com. 15, 455-457 (1964). • 18. J. Avigan, D. Steinberg, H. E. Vroman, M. J. Thompson, E. Mosettig, J. Biol. Chem 235, 3123-3126 (1960). • 19. R. B. Clayton, A. N. Nelson, I. D. Frantz Jr., J. Lipid Res. 4, 166-178 (1963). • 20. J. Aufenanger, J. Pill, K. Stegmeier, F. H. Schmidt, Horm. Metabol. Res. 17, 612-613 (1986). • 21. […] G. Popjak, A. Meenean, E. J. Parish, W. D. Nes, J. Biol. Chem 264,6230-6238 (1989). • 23. H. Yoshikawa, Brain Deve. 13, 115-120 (1991). • 24. R. I. Kelley, et al., Am. J. Of Med. Gen. 66, 478-484 (1996). • 25. G. S. Tint, et al., New England Journal of Medicine 330, 107-113 (1994). • 26. T.E. Willnow, et al., Proc. Natl. Acad. Sci USA 93, 8460-8464 (1996). • 27. S. Stefansson, D. A. Chappell, K. M. Argraves, D. K. Strickland, W. S. Argraves, J. Biol. Chem. 270, 19417-19421 (1995). • 28. W. Binns, L. F. James, J. L. Shupe, G. Everett, Am. J. Vet. Res. 24, 1164-1174 (1963). • 29. R. F. Keeler, W. Binns, Teratology 1, 5-10 (1968). • 30. P. A. Beachy, et al., CSH Symp. Quant. Biol. 62, in press (1997). • 31. E. D. Carstea, et al., Science 277, 228-231 (1997). • 32. S. K. Loftus, et al., Science 277, 232-235 […]. • 33. L. V. Goodrich, L. Milenkovic, K. M. Higgins, M. P. Scott, Science 277, 1109-1113 (1997). • 34. H. Kumagai, K. T. Chun, R. D. Simoni, J. Biol. Chem. 270, 19107-19113 (1995). • 35. G. Gil, J. R. Faust, D. J. Chin, J. L. Goldstien, M. S. Brown, Cell 41, 249-258 (1985). • 36. X. Hua, A. Nohturfft, J. L. Goldstein, M. S. Brown, Cell 87, 415-426 (1996). • 37. M. S. Brown, J. L. Goldstein, Cell 89, 331-340 (1997). • 38. M. M. Bryden, C. Perry, R. F. Keeler, Teratology 8, 18-28 (1973). • 39. M. L. Omnell, F. R. P. Sim, R. F. Keeler, L. C. Harne, K. W. Brown, Teratology 42, 105-119 (1990). • 40. Fertile chick eggs (white leghorn) were placed in a humidified incubator at 37.5° C in a rotating tray for 14 hours. […] The window was taped and the eggs incubated for an additional 4 days. The embryos were dissected in phosphate buffered saline (PBS, pH 7.2).
# [6] = molecular target: T2, His6Hh-C (Drosophila melanogaster, UniProt Q02936); assay: In vitro Hh autoprocessing reaction with purified components; format: biochemical
# T2 construct: made in house
# T2 sequence (Q02936 252-471): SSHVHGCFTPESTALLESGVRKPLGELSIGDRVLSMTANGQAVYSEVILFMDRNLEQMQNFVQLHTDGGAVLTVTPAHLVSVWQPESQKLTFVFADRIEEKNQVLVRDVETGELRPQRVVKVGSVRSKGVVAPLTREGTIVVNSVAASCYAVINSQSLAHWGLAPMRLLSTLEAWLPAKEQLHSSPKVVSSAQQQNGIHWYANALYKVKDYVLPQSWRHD
# [7] = tested on: Shh-N; assay: Intermediate neural plate explant response to exogenous Shh-N protein; format: cell-based, chick
# [8] = tested on: BMP7; assay: Neural plate explant response to BMP7 (migratory HNK-1 positive cells); format: cell-based, chick; settings: 10 µM, 100 ng/ml BMP7, ventral neural plate explants
# [9] = tested on: Shh protein; assay: Shh protein localization in floor plate cells of treated chick embryos; format: in vivo; settings: embryos treated after floor plate induction
# [10] = read-out: Percent Inhibition (incorporation of label into cholesteryl ester*) ^3H-Cholesterol
# [11] = read-out: Percent Inhibition (incorporation of label into cholesteryl ester*) ^14C-Oleic Acid
compound,measurement,setting,value
"CC1=C2C(=O)[C@H]3[C@@H](CC=C4C[C@@H](O)CC[C@@]43C)[C@@H]2CC[C@]12O[C@@H]1C[C@H](C)CN[C@H]1[C@H]2C [Jervine, jervine]",Percent Sterols: a. Desmosterol,[1],2.7% and 2.5% and 2.4%
same,Percent Sterols: 2. C28 Sterols,[1]; 1.25 µM,1.2%
same,Percent Sterols: 3. C29 Sterols,[1]; 1.25 µM,0.8%
same,Percent Sterols: Cholesterol,[1]; 1.25 µM,90%
same,Percent Sterols: d. Zymosterol,[1]; 1.25 µM,1.7%
same,Percent Sterols: e. Cholesta-8(14)-en-3ß-ol,[1]; 1.25 µM,1.0%
same,Percent Sterols: f. 7 Dehydrocholesterol,[1]; 1.25 µM,1.5%
same,Total Sterols (µg/mg protein),[1]; 1.25 µM,8.8 µg/mg protein
same,Percent Sterols: 2. C28 Sterols,[1]; 2.5 µM,0.7%
same,Percent Sterols: 3. C29 Sterols,[1]; 2.5 µM,0.8%
same,Percent Sterols: Cholesterol,[1]; 2.5 µM,90%
same,"Percent Sterols: c. Cholesta-7,24-dien-3ß-ol",[1]; 2.5 µM,0.5%
same,Percent Sterols: d. Zymosterol,[1]; 2.5 µM,2.0%
same,Percent Sterols: e. Cholesta-8(14)-en-3ß-ol,[1]; 2.5 µM,1.7%
same,Percent Sterols: f. 7 Dehydrocholesterol,[1]; 2.5 µM,1.4%
same,Total Sterols (µg/mg protein),[1]; 2.5 µM,8.4 µg/mg protein
same,Percent Sterols: 2. C28 Sterols,[1]; 5.0 µM,0.7%
same,Percent Sterols: 3. C29 Sterols,[1]; 5.0 µM,1.6%
same,Percent Sterols: Cholesterol,[1]; 5.0 µM,88%
same,"Percent Sterols: c. Cholesta-7,24-dien-3ß-ol",[1]; 5.0 µM,0.5%
same,Percent Sterols: d. Zymosterol,[1]; 5.0 µM,2.3%
same,Percent Sterols: e. Cholesta-8(14)-en-3ß-ol,[1]; 5.0 µM,2.3%
same,Percent Sterols: f. 7 Dehydrocholesterol,[1]; 5.0 µM,1.3%
same,Total Sterols (µg/mg protein),[1]; 5.0 µM,10 µg/mg protein
same,inhibition at 2.5 µM,[2]; [10],24%
same,inhibition at 2.5 µM,[2]; [11],28%
same,inhibition at 5 µM,[2]; [10],44%
same,inhibition at 5 µM,[2]; [11],36%
same,inhibition at 10 µM,[2]; [10],50%
same,inhibition at 10 µM,[2]; [11],49%
same,Holoprosencephaly induced in chick embryos,"[3]; in ovo exposure at the intermediate to definitive streak stage, Fig. 2: 10 µM jervine",induced external malformations characteristic of HPE
same,embryos displayed normal morphology,"[3]; in ovo, highest concentrations tested, 50µM",5/10
same,Higher doses that fully inhibit HNF3β and Isl-1 induction,[4],4.0 µM
same,Intermediate doses that block induction of HNF3β while permitting induction of Isl-1,[4],0.5 µM
same,Shh-Np production and accumulation of unprocessed precursor,[5],did not diminish Shh-Np production nor induce accumulation of unprocessed precursor
same,His6Hh-C autocleavage reaction in the presence of compound without sterol,[6],does not proceed
same,interference with cholesterol-stimulated autoprocessing,[6],does not interfere with autoprocessing
same,concentration that inhibits the repression of Pax7 expression by 2 nM Shh-N,[7],0.125 µM
same,doses at which HNF3β and Isl-1 induction are completely blocked,[7],0.5 µM
same,intermediate levels at which induction of HNF3β is blocked while induction of Isl-1 is maintained or expanded,[7],0.25 µM
same,Induction of migratory HNK-1 positive cells by BMP7,[8],not inhibited
same,localization of Shh protein within floor plate cells,[9],normal apical localization of Shh protein

# Source: EP1067939B1, “USE OF STEROIDAL ALKALOID DERIVATIVES AS INHIBITORS OF HEDGEHOG PROTEIN SIGNALING PATHWAYS” (The Johns Hopkins University, priority 1998, dated 1999)
